Test results as given in paper PMC12454639, “Direct disassembly of α-syn preformed fibrils into α-syn monomers by an all-D-peptide” (NPJ Parkinson's Disease, 2025).
Square brackets hold non-standard residues; d marks the D form. Peptide text beside a SMILES is read from it.

Experiments:
[1] = test system: α-syn monomer; test: AFM of de novo aggregation endpoint samples; assay type: biochemical; conditions: 10 µM α-syn + 20 µM SVD-1a
Protocol: Fig. 7 De novo aggregation analysis of α-syn in the presence and absence of SVD-1a. A De novo ThT assay of 10 µM α-syn with and without 20 µM SVD-1a. ThT fluorescence progression was measured in a 96-well non-binding half-area plate (Corning, USA) with a FLUOStar plate reader (BMG labtech, GE) at λex = 448 nm and λem = 482 nm with 300 rpm continuous orbital shaking between reads. For induction of aggregation, one borosilicate bead per well was added (d = 3 mm, Hilgenberg, GE). Data are shown as mean values with ±SD (n = 5). B CD secondary structure analysis of de novo aggregation samples. Samples were incubated as described in (A) without added ThT (n = 3) and subsequently pooled for CD analysis. Far-UV ellipticity of the samples was measured in a quartz cuvette (l = 10 mm) in a J-1100 CD-spectrometer (Jasco, GE). In addition to (A), a sample with 20 µM SVD-1a alone was incubated under identical conditions and later used as a reference for the sample with α-syn and SVD-1a. For this sample (α-syn + SVD-1a (after incubation)), the SVD-1a reference subtracted CD spectrum is shown. […] D α-Syn in the flow through (MWCO < 100 kDa) was quantified using an α-syn specific ELISA (BioLegend, Human α-Synuclein (Colorimetric), 448607, n = 3). E Retentate and flow-through samples were analyzed using SDS–PAGE with silver staining. […]

[2] = test system: small α-syn PFF seeds; test: AFM analysis of small α-syn PFF seeds; assay type: biochemical; conditions: 400 and 1600 nM SVD-1a, 3 days at 37 °C, PBS pH 7.4
Protocol: Fig. 4 SVD-1a disassembles small α-syn PFF seeds into α-syn monomers. Small α-syn PFF seeds were prepared as described previously. […] A and B Time-dependent DLS measurements with 200 nM small α-syn PFF seeds in the absence (A) and presence (B) of 500 nM SVD-1a. 1 ml sample was continuously measured in a sealed quartz cuvette at 37 °C under quiescent conditions every 60 s for 72 h in a SpectroSize 300 instrument (XtalConcepts, GE). Data are shown as a radius plot where the signal amplitude of each particle size is represented by the data point diameter. C One-phase exponential decay fit of “200 nM PFF + 500 nM SVD-1a” shown in (B). […] PFF and monomer samples that were incubated without SVD-1a served as controls. α-Syn was detected with the antibody Syn211. […] In the upper part of the blot, above the marker range, PFFs were detected, using a longer exposure time due to a weaker signal (see Supplementary Fig. 11 for the whole blot image with different exposure times). F Size-based fractionation by centrifugal concentration followed by ELISA quantification. […] After incubation, the samples were fractioned using a 100 kDa MWCO centrifugal concentrator (Merck, Microcon DNA Fast Flow 100 MWCO). α-Syn content of flow through (red) and retentate (blue) was quantified using an α-syn specific ELISA (BioLegend, Human α-Synuclein (Colorimetric), 448607). […]

SMILES: CC[C@@H](C)[C@@H](NC(=O)[C@@H](Cc1c[nH]cn1)NC(=O)[C@@H](CCC(=O)O)NC(=O)[C@@H](CCC(N)=O)NC(=O)[C@@H](Cc1c[nH]c2ccccc12)NC(=O)[C@@H](Cc1ccc(O)cc1)NC(=O)[C@H](NC(=O)[C@@H](CCC(=O)O)NC(=O)[C@@H](Cc1c[nH]cn1)NC(=O)[C@H](NC(=O)[C@H]1CCCN1C(=O)[C@@H](CC(C)C)NC(=O)[C@H](N)CCCNC(=N)N)[C@H](C)O)[C@H](C)O)C(=O)N[C@H](Cc1c[nH]c2ccccc12)C(=O)N[C@H](Cc1c[nH]cn1)C(=O)N[C@H](C)C(=O)N[C@H](CCCNC(=N)N)C(=O)N[C@H](CCCNC(=N)N)C(=O)N[C@H](CCCNC(=N)N)C(=O)N[C@H](CCCNC(=N)N)C(=O)N[C@H](CCCNC(=N)N)C(N)=O [SVD-1a] (H-[dR][dL][dP][dT][dH][dE][dT][dY][dW][dQ][dE][dH][dI][dW][dH][dA][dR][dR][dR][dR][dR]-NH2)
- fibrils in endpoint samples (AFM) [1]: clearly do not contain any fibrils
- small α-syn PFF particle number [2]: decrease in small α-syn PFF particle number
